According to ChEMBL document CHEMBL3244157, “Synthesis and antiinflammatory evaluation of substituted isophthalonitriles, trimesonitriles, benzonitriles, and terephthalonitriles” (J Med Chem, 1978):

Legend:
Rattus norvegicus [1] = assay: Antiinflammatory activity in Long Evans rat assessed as reduction of carrageenan-induced pedal edema at 25 mg/kg, po administered 1 hr prior to carrageenan challenge measured after 3 hrs relative to control; format: functional; design: scale not given: the % may be the effect or the level left
[2] = Toxicity in mouse assessed as overt effects; format: organism-based; conditions: in vivo
Rattus norvegicus [3] = assay: Antiinflammatory activity in Long Evans rat assessed as reduction of carrageenan-induced pedal edema at 20 mg/kg, po administered 1 hr prior to carrageenan challenge measured after 3 hrs relative to control; format: functional; design: scale not given: the % may be the effect or the level left

| Compound | Activity (Rattus norvegicus [1]) | LD50 [2] | Activity (Rattus norvegicus [3]) |
| --- | --- | --- | --- |
| Cc1c(Cl)cccc1Nc1c(C#N)c(Cl)c(C#N)c(Cl)c1C#N | 8% | 42 mg/kg | – |
| N#Cc1c(Cl)c(C#N)c(Cl)c(C#N)c1Cl | – | 24 mg/kg | 0% |
